# Experimental data from patent US8501446B2 (Vertex Pharmaceuticals Incorporated, priority 2004, dated 2013).
# Legend:
# Assay type in all cases: biochemical
# ROCK I (AA 6-553) = biological target: T1, ROCK I (AA 6-553) (Homo sapiens, UniProt Q13464); test: ROCK inhibition assay, standard coupled enzyme system ("Enzyme"); settings: enzyme-linked assay
# T1 construct: ROCK I (AA 6-553)
# Method in brief: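 ROCK I (AA 6-553) at 45 nM and 30 °C with 45 μM ATP and 200 μM peptide, in 100 mM HEPES pH 7.5, 10 mM MgCl2, 25 mM NaCl, 2 mM DTT, 1.5% DMSO. ADP output read by a PK/LDH coupled system: 2.5 mM PEP, 350 μM NADH, 30 μg/ml PK, 10 μg/ml LDH.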
# [1] = biological target: T2, full length Aurora-A (AA 1-403) (Homo sapiens, UniProt O14965); test: Aurora-A inhibition assay, standard coupled enzyme system; settings: average Ki if more than one value determined
# T2 construct: full length Aurora-A (AA 1-403)
# T2 sequence (O14965 1-403): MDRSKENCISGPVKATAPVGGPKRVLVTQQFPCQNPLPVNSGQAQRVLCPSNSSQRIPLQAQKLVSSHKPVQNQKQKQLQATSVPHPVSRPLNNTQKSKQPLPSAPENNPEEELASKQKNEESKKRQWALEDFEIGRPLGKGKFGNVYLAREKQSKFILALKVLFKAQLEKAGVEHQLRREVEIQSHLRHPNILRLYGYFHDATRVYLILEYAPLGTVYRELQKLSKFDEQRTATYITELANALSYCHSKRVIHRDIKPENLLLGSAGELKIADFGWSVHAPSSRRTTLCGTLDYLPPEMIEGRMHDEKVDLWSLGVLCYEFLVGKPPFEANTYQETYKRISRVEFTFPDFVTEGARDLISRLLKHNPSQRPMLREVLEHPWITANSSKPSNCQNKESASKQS
# Aurora-C = biological target: T3, Aurora-C (Homo sapiens, UniProt Q9UQB9); test: Aurora-C inhibition assay, coupled enzyme system as for Aurora-A; settings: average Ki if more than one value determined
# T3 sequence (Q9UQB9 1-309): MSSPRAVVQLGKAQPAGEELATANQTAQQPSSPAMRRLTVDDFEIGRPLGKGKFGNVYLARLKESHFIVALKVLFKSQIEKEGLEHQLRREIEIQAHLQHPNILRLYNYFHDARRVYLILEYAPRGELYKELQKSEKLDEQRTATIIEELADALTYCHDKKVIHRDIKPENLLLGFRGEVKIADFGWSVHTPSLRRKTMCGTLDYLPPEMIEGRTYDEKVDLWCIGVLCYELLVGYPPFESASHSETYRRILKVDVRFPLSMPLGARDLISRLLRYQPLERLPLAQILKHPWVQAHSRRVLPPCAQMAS
# Procedure: Compounds were screened for their ability to inhibit full length Aurora-A (AA 1-403) activity using a standard coupled enzyme system (Fox et al., Protein Sci. 7, pp. 2249 (1998)). Reactions were carried out in a solution containing 100 mM HEPES (pH 7.5), 10 mM MgCl2, 25 mM NaCl, 300 μM NADH, 1 mM DTT and 3% DMSO. Final substrate concentrations in the assay were 200 μM ATP (Sigma Chemicals, St Louis, Mo.) and 800 μM peptide (LRRASLG, American Peptide, Sunnyvale, Calif.). Reactions were carried out at 30° C. and 35 nM Aurora-A. Final concentrations of the components of the coupled enzyme system were 2.5 mM phosphoenolpyruvate, 200 μM NADH, 60 μg/ml pyruvate kinase and 20 μg/ml lactate dehydrogenase.
# An assay stock buffer solution was prepared containing all of the reagents listed above with the exception of ATP and the test compound of interest. The assay stock buffer solution (60 μl) was incubated in a 96 well plate with 2 μl of the test compound of interest at final concentrations spanning 0.002 μM to 30 μM at 30° C. for 10 min. Typically, a 12 point titration was conducted by preparing serial dilutions (from 1 mM compound stocks) with DMSO of the test compounds in daughter plates. The reaction was initiated by the addition of 5 μl of ATP (final concentration 200 μM). Rates of reaction were obtained using a Molecular Devices Spectramax plate reader (Sunnyvale, Calif.) over 10 min at 30° C. The Ki values were determined from the rate data as a function of inhibitor concentration using computerized nonlinear regression (Prism 3.0, Graphpad Software, San Diego, Calif.). Aurora-C activity was screened in a similar manner using Aurora-C protein. Aurora-B activity was screened using a radioactive assay, such as described in Examples 1 and 2, but using Aurora-B protein.
# Aurora-B = Aurora-B (Homo sapiens, UniProt Q96GD4); test: Aurora-B inhibition assay, radioactive assay; settings: average Ki if more than one value determined
# Sequence of Aurora-B (Q96GD4 whole entry): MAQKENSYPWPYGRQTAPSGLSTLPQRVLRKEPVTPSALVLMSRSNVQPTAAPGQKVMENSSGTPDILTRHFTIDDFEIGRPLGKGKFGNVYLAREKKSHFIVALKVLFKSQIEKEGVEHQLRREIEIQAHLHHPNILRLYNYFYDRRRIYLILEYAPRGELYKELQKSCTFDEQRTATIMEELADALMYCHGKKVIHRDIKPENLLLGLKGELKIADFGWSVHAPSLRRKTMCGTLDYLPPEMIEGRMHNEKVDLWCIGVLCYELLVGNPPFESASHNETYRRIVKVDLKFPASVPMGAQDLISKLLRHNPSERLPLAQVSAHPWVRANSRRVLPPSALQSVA
# Method in brief: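 Radiometric [γ-33P]ATP kinase assay run as described for JAK3/ROCK but with Aurora-B protein; 33P incorporation into substrate measured by filter capture and scintillation counting after TCA quench. Background-subtracted data fit to give Ki(app).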
# JAK3 = biological target: T4, JAK3 (Homo sapiens, UniProt P52333); test: JAK3 inhibition assay (standard radioactive enzyme assay); settings: average Ki if more than one value determined
# T4 sequence (P52333 1-1124): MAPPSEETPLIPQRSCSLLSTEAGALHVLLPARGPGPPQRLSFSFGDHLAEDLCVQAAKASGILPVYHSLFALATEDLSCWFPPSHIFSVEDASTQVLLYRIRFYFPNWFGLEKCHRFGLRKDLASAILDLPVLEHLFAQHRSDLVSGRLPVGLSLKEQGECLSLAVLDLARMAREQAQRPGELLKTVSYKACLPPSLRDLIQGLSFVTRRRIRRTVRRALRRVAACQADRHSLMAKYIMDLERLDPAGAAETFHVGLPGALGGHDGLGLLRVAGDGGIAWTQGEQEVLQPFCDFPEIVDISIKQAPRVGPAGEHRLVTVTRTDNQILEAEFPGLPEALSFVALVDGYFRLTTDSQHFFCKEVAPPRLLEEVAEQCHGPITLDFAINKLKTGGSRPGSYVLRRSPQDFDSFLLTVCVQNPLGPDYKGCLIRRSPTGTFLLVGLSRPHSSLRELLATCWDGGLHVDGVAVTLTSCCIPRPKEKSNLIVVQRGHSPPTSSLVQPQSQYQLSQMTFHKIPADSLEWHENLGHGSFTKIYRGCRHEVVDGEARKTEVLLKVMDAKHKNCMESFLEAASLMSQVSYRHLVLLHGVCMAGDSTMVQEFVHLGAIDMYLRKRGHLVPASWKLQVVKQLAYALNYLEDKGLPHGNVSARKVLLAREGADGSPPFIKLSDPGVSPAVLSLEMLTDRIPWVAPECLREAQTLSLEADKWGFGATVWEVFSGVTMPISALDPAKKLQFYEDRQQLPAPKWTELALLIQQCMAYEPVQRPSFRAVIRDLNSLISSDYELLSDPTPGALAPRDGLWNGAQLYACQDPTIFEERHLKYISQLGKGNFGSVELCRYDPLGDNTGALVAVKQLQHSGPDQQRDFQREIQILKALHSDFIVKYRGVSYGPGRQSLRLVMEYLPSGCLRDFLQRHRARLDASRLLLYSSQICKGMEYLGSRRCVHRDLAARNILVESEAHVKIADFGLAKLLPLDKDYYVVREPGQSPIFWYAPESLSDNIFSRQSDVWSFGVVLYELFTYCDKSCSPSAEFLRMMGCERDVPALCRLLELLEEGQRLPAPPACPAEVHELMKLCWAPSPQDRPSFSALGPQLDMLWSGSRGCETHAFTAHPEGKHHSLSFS
# T1 sequence (Q13464 6-553, species assumed): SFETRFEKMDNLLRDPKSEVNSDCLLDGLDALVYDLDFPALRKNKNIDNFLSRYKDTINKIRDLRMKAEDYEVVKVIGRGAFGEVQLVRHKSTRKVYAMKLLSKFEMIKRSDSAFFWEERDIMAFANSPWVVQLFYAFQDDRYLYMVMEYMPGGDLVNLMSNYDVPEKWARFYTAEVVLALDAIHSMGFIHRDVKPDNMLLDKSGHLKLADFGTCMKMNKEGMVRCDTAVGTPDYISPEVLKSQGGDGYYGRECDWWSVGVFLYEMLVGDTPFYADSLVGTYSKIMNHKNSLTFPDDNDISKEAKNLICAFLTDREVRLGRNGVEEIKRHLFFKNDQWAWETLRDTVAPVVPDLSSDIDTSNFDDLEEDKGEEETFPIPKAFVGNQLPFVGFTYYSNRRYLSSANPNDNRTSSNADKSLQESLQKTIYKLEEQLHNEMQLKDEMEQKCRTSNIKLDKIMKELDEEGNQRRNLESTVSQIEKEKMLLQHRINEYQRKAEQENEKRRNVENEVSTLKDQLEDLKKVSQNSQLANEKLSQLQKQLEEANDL
Compound,Ki (ROCK I (AA 6-553)) [nM],Ki [1] [nM],Ki (Aurora-C) [nM],Ki (Aurora-B) [nM],Ki (JAK3) [nM]
Clc1ccc(CNc2ccnc(-c3c[nH]c4ncc(Cl)cc34)n2)cc1 [Compound 237],500 to 5000,< 500,< 500,< 500,–
Fc1cnc(-c2c[nH]c3ncc(Cl)cc23)nc1NCc1ccc(Cl)cc1 [Compound 238],500 to 5000,< 500,< 500,< 500,–
Clc1ccc(CNc2cccc(-c3c[nH]c4ncc(Cl)cc34)n2)cc1 [Compound 242],500 to 5000,< 500,< 500,500 to 5000,–
C[C@H](Nc1nc(-c2c[nH]c3ncc(Cl)cc23)ncc1F)c1ccc(F)cc1 [Compound 285],500 to 5000,< 500,< 500,< 500,–
Clc1cnc2[nH]cc(-c3cccc(NC4CCCCC4)n3)c2c1 [Compound 290],500 to 5000,< 500,500 to 5000,500 to 5000,–
C[C@H](Nc1nc(-c2c[nH]c3ncc(Cl)cc23)ncc1F)c1cccc(O)c1 [Compound 306],500 to 5000,< 500,< 500,< 500,–
Fc1cnc(-c2c[nH]c3ncc(Cl)cc23)nc1NCc1cccc(Cl)c1 [Compound 312],500 to 5000,< 500,< 500,< 500,–
Fc1cnc(-c2c[nH]c3ncc(Cl)cc23)nc1NCc1ccccn1 [Compound 316],500 to 5000,< 500,< 500,< 500,–
Fc1cnc(-c2c[nH]c3ncc(Cl)cc23)nc1NCc1cccnc1 [Compound 317],500 to 5000,< 500,< 500,< 500,–
C[C@H](Nc1nc(-c2c[nH]c3ncc(Cl)cc23)ncc1F)c1cccc(O[C@H]2CCNC2)c1 [Compound 321],500 to 5000,< 500,< 500,500 to 5000,–
C[C@H](Nc1cc(C(=O)O)nc(-c2c[nH]c3ncc(Cl)cc23)n1)c1ccc(F)cc1 [Compound 323],500 to 5000,< 500,< 500,< 500,–
Cc1cc(N[C@@H](C)c2ccc(F)cc2)nc(-c2c[nH]c3ncc(Cl)cc23)n1 [Compound 324],500 to 5000,< 500,< 500,< 500,–
Fc1cnc(-c2c[nH]c3ncc(Cl)cc23)nc1NCC1CCCCN1 (stereo not shown) [Compound 325],500 to 5000,< 500,< 500,< 500,–
Fc1cnc(-c2c[nH]c3ncc(Cl)cc23)nc1NCC1CCCNC1 (stereo not shown) [Compound 326],< 500,< 500,< 500,< 500,–
Fc1cnc(-c2c[nH]c3ncc(Cl)cc23)nc1NCC1CCNCC1 [Compound 327],< 500,< 500,< 500,< 500,–
Fc1cnc(-c2c[nH]c3ncc(Cl)cc23)nc1NCC1CCCN1 (stereo not shown) [Compound 328],500 to 5000,< 500,< 500,< 500,–
Fc1cnc(-c2c[nH]c3ncc(Cl)cc23)nc1NCC1CCNC1 (stereo not shown) [Compound 329],< 500,< 500,< 500,< 500,–
C[C@H](Nc1nc(-c2c[nH]c3ncc(Cl)cc23)ncc1F)c1cccc(N)c1 [Compound 333],500 to 5000,< 500,< 500,< 500,–
C[C@H](Nc1cc(CO)nc(-c2c[nH]c3ncc(Cl)cc23)n1)c1ccc(F)cc1 [Compound 339],500 to 5000,< 500,< 500,< 500,–
CNC(=O)[C@H](C)Nc1nc(-c2c[nH]c3ncc(Cl)cc23)ncc1F [Compound 340],500 to 5000,< 500,< 500,< 500,–
Fc1cnc(-c2c[nH]c3ncc(Cl)cc23)nc1NC1CCNCC1 [Compound 345],< 500,< 500,500 to 5000,500 to 5000,–
Fc1cnc(-c2c[nH]c3ncc(Cl)cc23)nc1NC1CCCNC1 (stereo not shown) [Compound 347],< 500,< 500,500 to 5000,500 to 5000,–
Fc1cnc(-c2c[nH]c3ncc(Cl)cc23)nc1NC1CCOCC1 [Compound 348],500 to 5000,< 500,< 500,< 500,–
Fc1cnc(-c2c[nH]c3ncc(Cl)cc23)nc1NCC1CCCCC1 [Compound 349],500 to 5000,< 500,< 500,< 500,–
C[C@H](Nc1nc(-c2c[nH]c3ncc(Cl)cc23)ncc1F)C(=O)NCCO [Compound 391],500 to 5000,< 500,< 500,–,< 500
CCS(=O)(=O)NCCNC(=O)[C@H](C)Nc1nc(-c2c[nH]c3ncc(Cl)cc23)ncc1F [Compound 445],–,< 500,< 500,500 to 5000,–
C[C@H](Nc1nc(-c2c[nH]c3ncc(Cl)cc23)ncc1F)C(=O)NCCNC(=O)OCc1ccccc1 [Compound 458],–,< 500,< 500,< 500,–
C[C@H](Nc1nc(-c2c[nH]c3ncc(Cl)cc23)ncc1F)C(=O)NCCC#N [Compound 461],–,< 500,< 500,< 500,–
